Test results: patent US20230293560A1, “METHOD FOR MODULATING THE BLADDER MICROBIOME TO IMPROVE BLADDER HEALTH” (Kimberly-Clark Worldwide, Inc., priority 2020, published 2023)
Several values for one entry are separate records, joined by “and”; a condition that tells them apart may be missing. Equal values may be shown once.

Experiments:
[1] = test system: L. crispatus, KC18-1173-1, Bladder (Lc-3); test: Competition assay, L. crispatus recovered; type: cell-based, Lactobacillus crispatus; conditions: Table 6, prebiotic 2%, one line per replicate; for Lc-3 MRS Δ: change vs start, background growth in CHL media subtracted, MRS agar; for Lc-3 MRS end: competition Sa-2 vs Lc-3, 48 hours, enumerated on MRS agar
Description: (§1) Further testing was conducted to put the prebiotic compounds in competition assay testing, as further described in the test methods section herein. In the competition assay testing, each competition involved testing a single prebiotic compound with the commensal bacteria species of L. crispatus, KC18-1173-1, Bladder (“Lc-3”—Table 2) against the pathogenic bacterial species of S. anginosus, KC18-1131-3B, Bladder (“Sa-2”—Table 2).
(§2) • 1. An in house bacterial agar was created based on MRS agar (Kaplan and Hutkins, 2000) where the glucose is substituted for the prebiotic to be tested (either dextran MW ˜6,000, alpha-cyclodextrin, glucomannan, or pectin), bromocresol purple was included as a pH indicator. • 2. Bacteria were enumerated on each agar and color changes were recorded. Method for Competition Assay (Modified from “In Vitro Evaluation of Nutrients that Selectively Confer a Competitive Advantage to Lactobacilli” Vongsa et al, Beneficial Microbes 2016) • 1. Create 2% w/v stock of prebiotic or positive control (glucose/dextrose) as described above. • 2. From a freezer stock subculture the bacteria twice into De Man, Rogosa and Sharpe (MRS) broth (BD Difco, Becton Dickinson, Franklin Lakes, NJ), 37° C., stationary, anaerobic, overnight. • 3. From the last subculture, plate onto an MRS agar plate for L. crispatus KC18-1173-1 or blood agar for S. anginosus KC18-1131-3B, grow 37° C., stationary, anaerobic, overnight. • 4. Create a bacterial suspension by using a sterile tipped swab to transfer colonies of bacteria into a PBS suspension blank to a 2 MacFarland for both species. • 5. Enumerate the starting culture. • 6. Add 9.8 mL of prebiotic media into a 15 mL conical tube. • 7. Add 100 μL of the diluted bacteria to the media, incubate at 37° C., anaerobic, 48 hours. • 8. Harvest 100 μL from the tube containing the prebiotic and plate onto MRS agar and tryptic soy agar (TSA). • 9. Enumerate the bacteria on the MRS agar (both the L. crispatus and the S. anginosus). Small colonies are counted as S. anginosus and large colonies are counted as L. crispatus. • 10. Enumerate the bacteria on the TSA plate. […] Growth of the bacteria in the negative control (CHL media without prebiotic) was subtracted from the growth in the presence of the prebiotic or formulation.

[2] = test system: ratio of L. crispatus/S. anginosus; test: Therapeutic effect protocol (competition assay); type: cell-based, Lactobacillus crispatus; Streptococcus anginosus; conditions: Table 6; prebiotic 2%; Lc-3 vs Sa-2
From the text: As used herein, the term “therapeutic effect” refers to the ability of the compositions and formulations of the present disclosure to stimulate the growth of L. crispatus relative S. anginosus measured according to the therapeutic effect protocol described below. The therapeutic effect can be expressed as a ratio of L. crispatus to S. anginosus and is desirably greater than about 100, more preferably greater than about 500 and more desirably greater than about 1,000.
as §1, §2
Colonies of L. crispatus and S. anginosus were tested against in the competition method assay test method as described above. The therapeutic effect was calculated by comparing the colony forming units recovered after the competition assay of both L. crispatus and S. anginosus and calculating the ratio of L. crispatus/S. anginosus. A larger number indicates an increase in L. crispatus and/or a decrease in S. anginosus and a smaller number indicates a decrease in L. crispatus and/or an increase in S. anginosus.

[3] = test system: commensal and pathogenic bacterial species; test: Prebiotic screening, summary in words across species; type: cell-based; conditions: commensal (L. crispatus, L. gasseri, L. jensenii) and pathogenic (S. anginosus, E. faecalis) species
Description: Most of the prebiotic compounds were initially tested in a high throughput assay screening process, described further in the Test Methods section herein, but three prebiotics (as noted in Table 3) were tested using a plate assay screening process as described in the Test Methods section herein. The prebiotics were tested against the commensal bacterial species of Lactobacillus crispatus, Lactobacillus gasseri, and Lactobacillus jensenii and against the pathogenic bacterial species of Streptococcus anginosus and Enterococcus faecalis as shown in Table 2. The bacterial species were taken from different sources, listed as culture collection, bladder, and vagina.
The results of the assay plate screening of the prebiotic compounds of Table 1 against the bacterial species of Table 2 is documented in Table 3 with the results being described by the following legend: • ++ if growth and fermentation was equal to or greater than the positive control • + if growth and fermentation was less than the positive control • […] if weak or no growth or fermentation • NT if not tested Some codes were not tested based on the use or non-use by the bacteria, as a way to efficiently move through the assay plate screening to the competition assay, described below.
• 1. Create a 2% w/v stock of prebiotic or positive control (glucose/dextrose) to be tested in API 50 CHL media (Biomerieux, Marcy-I'Étoile, France). API 50 CHL media contains minimal amounts of carbon for growth, and a bromocresol purple as a pH indicator of fermentation. Filter sterilize media with a […]. Store at 4-6° C. until use. • 2. Add 180 μL of media containing the prebiotic to a sterile, flat bottom 96-well microtiter plate (Corning, Corning, NY). • 3. From a freezer stock subculture the bacteria twice into De Man, Rogosa and Sharpe (MRS) broth (BD Difco, Becton Dickinson, Franklin Lakes, NJ), 37° C., stationary, anaerobic, overnight. • 4. From the last subculture, plate onto an MRS agar plate (Teknova, Hollister, CA) and grow 37° C., stationary, anaerobic, overnight. • 5. Create a bacterial suspension by using a sterile tipped swab to transfer colonies of bacteria into a PBS suspension blank to a 0.5 MacFarland (S. anginosus or E. faecalis) or a 1 MacFarland (Lactobacillus species) from the MRS agar plate. • 6. Enumerate the starting culture. • 7. Inoculate the media alone and media containing the prebiotic or positive control with 20 μL of the bacterial suspension. • 8. Place the plate into a spectrophotometer (Molecular Devices, San Jose, CA) and read the plate every 20 minutes for 24-48 hours. Read wavelengths (OD 430, OD 590, and OD 660). A color change to yellow caused by a drop in pH will be read by an increase in the OD430 value and a decrease in the OD590 value and is indicative of bacterial fermentation. An increase in OD660 values is indicative of an increase in turbidity and bacterial growth.
• 1. An in house bacterial agar was created based on MRS agar (Kaplan and Hutkins, 2000) where the glucose is substituted for the prebiotic to be tested (either dextran MW ˜6,000, alpha-cyclodextrin, glucomannan, or pectin), bromocresol purple was included as a pH indicator. • 2. Bacteria were enumerated on each agar and color changes were recorded. Method for Competition Assay (Modified from “In Vitro Evaluation of Nutrients that Selectively Confer a Competitive Advantage to Lactobacilli” Vongsa et al, Beneficial Microbes 2016) • 1. Create 2% w/v stock of prebiotic or positive control (glucose/dextrose) as described above. • 2. From a freezer stock subculture the bacteria twice into De Man, Rogosa and Sharpe (MRS) broth (BD Difco, Becton Dickinson, Franklin Lakes, NJ), 37° C., stationary, anaerobic, overnight. • 3. From the last subculture, plate onto an MRS agar plate for L. crispatus KC18-1173-1 or blood agar for S. anginosus KC18-1131-3B, grow 37° C., stationary, anaerobic, overnight. • 4. […]

[4] = test system: S. anginosus, KC18-1131-3B, Bladder (Sa-2); type: cell-based; conditions: Table 6, prebiotic 2%, one line per replicate; for Sa-2 MRS Δ / Sa-2 TSA Δ: change vs start, background growth in CHL media subtracted; for Sa-2 MRS Δ: MRS agar; for Sa-2 MRS end / Sa-2 TSA end: competition Sa-2 vs Lc-3, 48 hours; for Sa-2 MRS end: anaerobic, enumerated on MRS agar; for Sa-2 TSA end: enumerated on TSA
Description: as §1, §2

Row | Compound | Lc-3 MRS Δ [1] | Lc-3 MRS end [1] | Therapeutic Effect (ratio of L. crispatus/S. anginosus) [2] | overall outcome of the screening of Table 3, in words [3] | Sa-2 MRS Δ [4] | Sa-2 TSA Δ [4] | Sa-2 MRS end [4] | Sa-2 TSA end [4]
1 | O=CC[C@H](O)[C@H](O)CO [2-Deoxy-D-Ribose] | −5.22 Log CFU/mL and −1.90 Log CFU/mL | 0 Log CFU/mL and 4.18 Log CFU/mL | 6.03E−07 (2×) and 1.91E−03 (2×) | not able to provide growth for most, if not all, commensal and pathogenic bacterial species | −2.41 Log CFU/mL and −1.26 Log CFU/mL | −0.63 Log CFU/mL and −0.23 Log CFU/mL | 4.29 Log CFU/mL and 5.59 Log CFU/mL | 6.22 Log CFU/mL and 6.90 Log CFU/mL
2 | O=C[C@@H](O)[C@H](O)[C@H](O)CO [D-Arabinose] | −0.13 Log CFU/mL and −0.23 Log CFU/mL | 5.00 Log CFU/mL and 5.85 Log CFU/mL | 4.07E−02 (2×) and 1.10E−01 (2×) | not able to provide growth for most, if not all, commensal and pathogenic bacterial species | −0.27 Log CFU/mL and −0.47 Log CFU/mL | −0.46 Log CFU/mL and −0.32 Log CFU/mL | 6.43 Log CFU/mL and 6.38 Log CFU/mL | 6.39 Log CFU/mL and 6.81 Log CFU/mL
3 | OC[C@@H](O)[C@@H](O[C@H]1O[C@H](CO)[C@@H](O)[C@H](O)[C@H]1O)[C@H](O)[C@@H](O)CO [Maltitol] | 0.35 Log CFU/mL and −0.08 Log CFU/mL | 5.48 Log CFU/mL and 6.00 Log CFU/mL | 1.66E−02 (2×) and 2.51E−02 (2×) | not able to provide growth for most, if not all, commensal and pathogenic bacterial species | −0.12 Log CFU/mL and −0.37 Log CFU/mL | 0.41 Log CFU/mL and 0.47 Log CFU/mL | 6.58 Log CFU/mL and 6.48 Log CFU/mL | 7.26 Log CFU/mL and 7.6 Log CFU/mL
4 | O=C(CO)[C@@H](O)[C@H](O)[C@H](O)CO[C@H]1O[C@H](CO)[C@@H](O)[C@H](O)[C@H]1O [Palatinose Hydrate, 6-O-α-D-Glucopyranosyl-D-fructose] | 2.93 Log CFU/mL and 2.26 Log CFU/mL and 3.24 Log CFU/mL and 1.90 Log CFU/mL | 7.97 Log CFU/mL and 8.00 Log CFU/mL and 8.37 Log CFU/mL and 7.98 Log CFU/mL | 1.74E+03 (2×) and 2.57E+03 (2×) and 3.29E+03 (2×) and 6.92E+03 (2×) | – | −1.69 Log CFU/mL and −1.90 Log CFU/mL and −1.82 Log CFU/mL | −2.39 Log CFU/mL and −2.07 Log CFU/mL and −0.79 Log CFU/mL and −2.32 Log CFU/mL | 5.16 Log CFU/mL and 4.47 Log CFU/mL and 4.88 Log CFU/mL | 4.74 Log CFU/mL and 4.56 Log CFU/mL and 5.73 Log CFU/mL and 4.53 Log CFU/mL
5 | O=C(CO)[C@@H](O)[C@H](O)[C@H](O)CO[C@H]1O[C@H](CO)[C@@H](O)[C@H](O)[C@H]1O [Palatinose PST-N] | 3.42 Log CFU/mL and 2.48 Log CFU/mL | 8.46 Log CFU/mL and 8.22 Log CFU/mL | 8.71E+03 (2×) and 5.80E+03 (2×) | – | −2.08 Log CFU/mL and −1.53 Log CFU/mL | −2.11 Log CFU/mL and −1.03 Log CFU/mL | 4.29 Log CFU/mL and 5.16 Log CFU/mL | 4.52 Log CFU/mL and 5.49 Log CFU/mL
6 | O=C(CO)[C@@H](O)[C@H](O)[C@H](O)CO[C@H]1O[C@H](CO)[C@@H](O)[C@H](O)[C@H]1O [Palatinose PST-PA] | 3.25 Log CFU/mL and 1.94 Log CFU/mL | 8.29 Log CFU/mL and 7.68 Log CFU/mL | 1.66E+02 (2×) and 1.50E+02 (2×) | – | −1.63 Log CFU/mL | −0.56 Log CFU/mL and −1.23 Log CFU/mL | 5.06 Log CFU/mL | 6.07 Log CFU/mL and 5.29 Log CFU/mL
7 | O=C(CO)[C@@H](O)[C@H](O)[C@H](O)CO[C@H]1O[C@H](CO)[C@@H](O)[C@H](O)[C@H]1O [Palatinose PST-PF] | 3.02 Log CFU/mL and 2.16 Log CFU/mL | 8.06 Log CFU/mL and 7.90 Log CFU/mL | 1.29E+04 (2×) and 1.41E+04 (2×) | – | −1.28 Log CFU/mL | −2.68 Log CFU/mL and −0.94 Log CFU/mL | 5.41 Log CFU/mL | 3.95 Log CFU/mL and 5.58 Log CFU/mL
